Holding throughout (assay): inhibition of tumour cell growth, NCI panel, 48 h
The subject of assay [1] is NCI-H23 lung.
Assay [2] relates to SF-268 CNS.
Assay [3] has as its system HS 578T breast.
Assay [4] concerns MCF7 breast.
Assay [5] concerns SK-MEL-2 melanoma.
In assay [6] the test system is SK-MEL-28 melanoma.
Assay [7] has as its system SNB-75 CNS.
Assay [8] concerns CAKI-1 renal.
In assay [9] the test system is IGROV1 ovarian.
Assay [10] deals with SK-OV-3 ovarian.

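Cultured in 96-well plates, cells were exposed to test compound for 48 hours across five concentrations. TGI is the concentration that stops growth completely.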 A value given as a limit tells only on which side of the number the result lay.

As to `Cc1nc(N)c(N2CCN(C#N)CC2)c(=O)[nH]1`, the TGI in [1], in [2], in assay [3], in [4], in [5] and in [6] was over 100 µM each time. Moreover, the TGI in assay [7] is over 100 µM.
Consider `COc1ccc(CNc2cnc3ccc(N)cc3n2)cc1`, for which the TGI in assay [1], in assay [8], in [2], in [5], in assay [6] and in [7] was over 100 µM each time.
For `Nc1ncnc2c1nnn2C1C=CC(CP(=O)(O)O)C1` (stereo not drawn), the TGI in [9], in assay [1], in assay [2], in [3], in assay [4] and in assay [5] was over 100 µM each time. For the same compound, the TGI in assay [10] and in [6] was over 100 µM each time.
As to `COC1OC(C)C(NC(=O)OCC(Cl)(Cl)Cl)C2OC(C)(C)OC12` (stereo not drawn), the TGI in [9], in [1], in [8], in [2], in [3] and in [4] was over 100 µM in each case. The TGI in [10] and in [6] was over 100 µM throughout.
Consider `CCCCCCCC(=O)OCC(COC(=O)C(C)(C)C)OC(=O)Cc1ccccc1` (stereo not drawn), for which the TGI in assay [9], in [1], in assay [8], in assay [2], in assay [10] and in assay [6] was over 100 µM in each case.
On to `CC1CC(N2CCOCC2)=Nc2ccccc2N1C` (stereo not drawn), for which the TGI in [9], in [1], in assay [8], in [2], in assay [3] and in assay [5] was over 100 µM throughout. For the same compound, the TGI in assay [10] was over 100 µM; in assay [6], over 100 µM; in assay [7], 89.7 µM.
With `Cc1c(N2CCOCC2)nc2ccc(Cl)cc2c1-c1ccccc1`, the TGI in assay [9], in assay [1], in assay [8], in [2], in [5] and in assay [10] was over 100 µM throughout. Besides, the TGI in [6] and in assay [7] was over 100 µM each time.
As to `O=c1c(F)cn2c(=O)n1CCCCCCCn1c(=O)c(F)cn(c1=O)CCCCCCC2`, the TGI is over 100 µM in assay [9]; over 100 µM in [1]; over 100 µM in assay [8]; 13.1 µM in assay [2]; over 100 µM in assay [4]; over 100 µM in assay [5]. The TGI was over 100 µM in assay [10], 22.2 µM in assay [6] and 27 µM in [7].
As for `CC1=NN(C(=O)Cc2ccccc2)C(=O)/C1=C\c1ccc(O)cc1`, the TGI in assay [9], in assay [1], in assay [8], in [2], in [5] and in assay [10] was over 100 µM each time. The TGI in [6] was over 100 µM.
Regarding `COc1cc(C)c(CC/C(C)=C/Cc2cc(O)ccc2O)c(C)c1C`, the TGI in assay [9], in assay [1], in assay [8], in assay [2], in [5] and in assay [10] was over 25 µM in each case. For the same compound, the TGI in [6] and in assay [7] was over 25 µM throughout.
For `Cc1ccc2cccc(-c3cccc4ccccc34)c2n1`, the TGI in [9] was over 100 µM; in assay [1], over 100 µM; in assay [8], over 100 µM; in assay [2], over 100 µM; in assay [3] it was 81.9 µM; in assay [5], 37.5 µM. The values for the TGI in assay [10], in [6] and in assay [7] were 75.2 µM, over 100 µM and 48.2 µM, respectively.
Turning to `CC(=O)NNc1nc(C)c(C(=O)NNC(=O)C(=O)Nc2ccc([N+](=O)[O-])cc2[N+](=O)[O-])s1`, the TGI in assay [9], in assay [1], in [8], in [2], in [5] and in assay [10] was over 100 µM throughout. Moreover, the TGI in assay [6] and in assay [7] was over 100 µM each time.
`O=[N+]([O-])c1ccc(C[P+]2(c3ccccc3)CCCCC2)cc1`: the TGI in assay [9], in [1], in assay [5], in assay [10], in assay [6] and in [7] was over 100 µM throughout.
As for `Cn1nc(-c2ccc(S(=O)(=O)/N=C(\NN)Nc3ccc(Cl)cc3)s2)cc1C(F)(F)F`, the TGI came to 36 µM in assay [9]; 40.9 µM in assay [1]; 35.1 µM in [8]; 32.6 µM in assay [2]; 44.5 µM in [4]; 34.1 µM in assay [5]. The TGI came out at 41.9 µM in assay [10], 33.8 µM in assay [6] and 29.9 µM in [7].
Take `O=C(/C=C/c1ccc(O)c(O)c1)OCCc1ccc2ccccc2c1`: the TGI in assay [9] is 10.4 µM; in [1], 14.7 µM; in [2] it was 27 µM; in assay [3], 24.1 µM; in assay [4] it was 8.91 µM; in assay [5], 4.35 µM. For the same compound, the TGI in assay [10] was 26.3 µM; in assay [6] it was 21.8 µM; in assay [7] it was 8.22 µM.
Turning to `C[C@]12CCC3[C@@H](CCC45OC4C(=O)CC[C@]35C)C1Cc1cnn(-c3ccc(F)cc3)c1N2` (stereo partly drawn), the TGI in assay [1] is 54.4 µM; in assay [2], 77.8 µM; in assay [5] it was over 100 µM; in assay [10], over 100 µM; in assay [6], 85.2 µM; in assay [7], over 100 µM.

For the origin of these results see PubChem BioAssay (NCI).
